Consider 3 compounds from patent US12077503B2, “Substituted cyclic amides and their use as herbicides” (FMC CORPORATION, priority 2015, dated 2024).

Type in all cases: in vivo
One assay deals with Kochia (Kochia scoparia). The assay can be described thus: Test A preemergence. Conditions: Bassia scoparia, pre-emergence, 240 h; for pest or weed control at 125 g/ha: 125 g ai/ha, preemergence, visual rating after approx. 10 d, 0 to 100 scale where 0 is no effect and 100 is complete control; for pest or weed control at 500 g/ha: 500 g ai/ha, visual injury vs untreated controls after approximately 10 d, read-out: Kochia plant response rating (0 to 100 scale where 0 is no effect and 100 is complete control). The gist of the method: (§1)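 Visual injury scores from 0, no effect, to 100, complete control, were assigned versus untreated controls roughly 10 d after treatment in the greenhouse. Test chemicals, formulated with surfactant in a non-phytotoxic solvent, were applied to planted seeds as a preemergence soil spray or postemergence to one- to two-leaf plants 2 to 10 cm tall, in loam–sand soil.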

Assay [1] has as its system barnyardgrass (Echinochloa crus-galli). The assay can be described thus: Test A preemergence. The note with it: Echinochloa crus-galli, pre-emergence, 240 h; for pest or weed control at 125 g/ha: 125 g ai/ha, preemergence, visual rating after approx. 10 d, 0 to 100 scale where 0 is no effect and 100 is complete control; for pest or weed control at 500 g/ha: 500 g ai/ha, visual injury vs untreated controls after approximately 10 d, read-out: Barnyardgrass plant response rating (0 to 100 scale where 0 is no effect and 100 is complete control). In outline:
as §1

The test system of assay [2] is giant foxtail (Setaria faberii). Description: Test A preemergence. The note with it: Setaria faberi, pre-emergence, 240 h; for pest or weed control at 125 g/ha: 125 g ai/ha, preemergence, visual rating after approx. 10 d, 0 to 100 scale where 0 is no effect and 100 is complete control; for pest or weed control at 500 g/ha: 500 g ai/ha, visual injury vs untreated controls after approximately 10 d, read-out: Foxtail, Giant plant response rating (0 to 100 scale where 0 is no effect and 100 is complete control). In outline:
as §1

For assay [3], the system named is pigweed (Amaranthus retroflexus). Description: Test A preemergence. Conditions: Amaranthus retroflexus, pre-emergence, 240 h; for pest or weed control at 125 g/ha: 125 g ai/ha, preemergence, visual rating after approx. 10 d, 0 to 100 scale where 0 is no effect and 100 is complete control; for pest or weed control at 500 g/ha: 500 g ai/ha, visual injury vs untreated controls after approximately 10 d, read-out: Pigweed plant response rating (0 to 100 scale where 0 is no effect and 100 is complete control).

For assay [4], the system named is ragweed (common ragweed, Ambrosia elatior). Description: Test A preemergence. Conditions: Ambrosia artemisiifolia, pre-emergence, 240 h; for pest or weed control at 125 g/ha: 125 g ai/ha, preemergence, visual rating after approx. 10 d, 0 to 100 scale where 0 is no effect and 100 is complete control; for pest or weed control at 500 g/ha: 500 g ai/ha, visual injury vs untreated controls after approximately 10 d, read-out: Ragweed plant response rating (0 to 100 scale where 0 is no effect and 100 is complete control). The gist of the method: as §1

In assay [5] the test system is ryegrass, Italian (Italian ryegrass, Lolium multiflorum). Description: Test A preemergence. The note with it: Lolium multiflorum, pre-emergence, 240 h; for pest or weed control at 125 g/ha: 125 g ai/ha, preemergence, visual rating after approx. 10 d, 0 to 100 scale where 0 is no effect and 100 is complete control; for pest or weed control at 500 g/ha: 500 g ai/ha, visual injury vs untreated controls after approximately 10 d, read-out: Ryegrass, Italian plant response rating (0 to 100 scale where 0 is no effect and 100 is complete control). The gist of the method: as §1

Assay [6] concerns barnyardgrass (Echinochloa crus-galli). The assay can be described thus: Test A postemergence. Conditions: Echinochloa crus-galli, post-emergence, 240 h, read-out: Plant response rating, Barnyardgrass; for pest or weed control at 125 g/ha: 125 g ai/ha, postemergence, visual injury after approximately 10 d, 0 to 100 scale (0 no effect, 100 complete control). The gist of the method:
as §1

For assay [7], the system named is giant foxtail (Setaria faberii). Description: Test A postemergence. The note with it: Setaria faberi, post-emergence, 240 h, read-out: Plant response rating, Foxtail, Giant; for pest or weed control at 125 g/ha: 125 g ai/ha, postemergence, visual injury after approximately 10 d, 0 to 100 scale (0 no effect, 100 complete control). In outline: as §1
Assay [8] concerns pigweed (Amaranthus retroflexus). The assay can be described thus: Test A postemergence. The note with it: Amaranthus retroflexus, post-emergence, 240 h, read-out: Plant response rating, Pigweed; for pest or weed control at 125 g/ha: 125 g ai/ha, postemergence, visual injury after approximately 10 d, 0 to 100 scale (0 no effect, 100 complete control). The gist of the method:
as §1

Assay [9] relates to ryegrass, Italian (Italian ryegrass, Lolium multiflorum). The assay can be described thus: Test A postemergence. Conditions: Lolium multiflorum, post-emergence, 240 h, read-out: Plant response rating, Ryegrass, Italian; for pest or weed control at 125 g/ha: 125 g ai/ha, postemergence, visual injury after approximately 10 d, 0 to 100 scale (0 no effect, 100 complete control). The gist of the method:
as §1

The subject of assay [10] is barnyardgrass (Echinochloa crus-galli). The assay can be described thus: Test B flooded paddy test. The note with it: Echinochloa crus-galli, Flood, 250 g ai/ha; scale of 0 to 100 where 0 is no effect and 100 is complete control; read-out: Barnyardgrass plant response rating. In outline: (§2)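 Compound goes directly into floodwater once pots are flooded 3 cm above soil, targeting plants at two leaves; the water depth is then held for the test duration. Plants sit 13–15 d in a greenhouse and are rated visually, 100 denoting complete control.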

For assay [11], the system named is ducksalad (Heteranthera limosa). The assay can be described thus: Test B flooded paddy test. Conditions: Heteranthera limosa, Flood, 250 g ai/ha; scale of 0 to 100 where 0 is no effect and 100 is complete control; read-out: Ducksalad plant response rating. The gist of the method: as §2
The subject of the next assay is rice (Oryra sativa). The assay can be described thus: Test B flooded paddy test. Conditions: Oryza sativa, Flood, 250 g ai/ha; scale of 0 to 100 where 0 is no effect and 100 is complete control; read-out: Rice plant response rating. In outline:
as §2

Assay [12] deals with sedge, umbrella (small-flower umbrella sedge, Cyperus difformis). The assay can be described thus: Test B flooded paddy test. The note with it: Cyperus difformis, Flood, 250 g ai/ha; scale of 0 to 100 where 0 is no effect and 100 is complete control; read-out: Sedge, Umbrella plant response rating. The gist of the method:
as §2

The mark [13] stands for this setting: read-out: Plant response rating, Kochia.
[14] abbreviates: read-out: Plant response rating, Barnyardgrass.
Where [15] appears, read: read-out: Plant response rating, Foxtail, Giant.
Setting [16] is: read-out: Plant response rating, Pigweed.
Where [17] appears, read: read-out: Plant response rating, Ragweed.
Setting [18] is: read-out: Plant response rating, Ryegrass, Italian.
The mark [19] stands for this setting: Postemergence, 31 g ai/ha, visual injury after approx. 10 d, 0 to 100 scale, 0 no effect, 100 complete control.

The structures appear in SMILES notation.

Take `CC(F)(F)c1cccc([C@H]2CNC(=O)[C@@H]2C(=O)Nc2ccccc2S(C)(=O)=O)c1` [Compound 780]: the pest or weed control at 125 g/ha with Kochia (Kochia scoparia) (setting [13]) worked out at 40%; in [1] (setting [14]), 80%; in assay [2] (setting [15]), 90%; in assay [3] (setting [16]) it was 0%; in assay [4] (setting [17]), 40%; in [5] (setting [18]), 0%. For the same compound, the pest or weed control at 125 g/ha in assay [6] worked out at 60%; in [7] it was 60%; in assay [8] it was 0%; in assay [9], 0%. In addition, the pest or weed control at 500 g/ha in the assay on Kochia (Kochia scoparia) (Preemergence) amounted to 80%; in assay [1] (Preemergence) it was 90%; in assay [2] (Preemergence), 90%; in assay [3] (Preemergence), 50%; in [4] (Preemergence) it was 70%; in assay [5] (Preemergence), 20%. Also, the pest or weed control at 250 g/ha in assay [10] stood at 20%; in assay [11] it was 90%; in the assay on rice (Oryra sativa) it was 0%; in assay [12] it was 0%.

For the compound `C/C=C/C1CNC(=O)C1C(=O)Nc1cccc(F)c1F` (stereo not shown) [Compound 793], the pest or weed control at 125 g/ha (in the assay with Kochia (Kochia scoparia) (setting [13]); in assay [1] (setting [14]); in assay [2] (setting [15]); in [3] (setting [16]); in assay [4] (setting [17]); in assay [5] (setting [18])) was 0% throughout. Moreover, the pest or weed control at 125 g/ha in assay [6], in [7], in [8] and in assay [9] was 0% each time. The pest or weed control at 31 g/ha in the assay with Kochia (Kochia scoparia) (Preemergence, 31 g ai/ha, 0 to 100 scale (0 no effect, 100 complete control), read-out: Plant response rating, Kochia) was 0%; in assay [1] (Preemergence, 31 g ai/ha, 0 to 100 scale (0 no effect, 100 complete control), read-out: Plant response rating, Barnyardgrass), 0%; in assay [2] (Preemergence, 31 g ai/ha, 0 to 100 scale (0 no effect, 100 complete control), read-out: Plant response rating, Foxtail, Giant), 0%; in [3] (Preemergence, 31 g ai/ha, 0 to 100 scale (0 no effect, 100 complete control), read-out: Plant response rating, Pigweed), 0%; in assay [4] (Preemergence, 31 g ai/ha, 0 to 100 scale (0 no effect, 100 complete control), read-out: Plant response rating, Ragweed) it was 0%; in [5] (Preemergence, 31 g ai/ha, 0 to 100 scale (0 no effect, 100 complete control), read-out: Plant response rating, Ryegrass, Italian), 0%. The pest or weed control at 31 g/ha in assay [6] (setting [19]), in assay [7] (setting [19]), in [8] (setting [19]) and in [9] (setting [19]) was 0% in each case. The pest or weed control at 250 g/ha in [10] was 0%; in assay [11], 25%; in the assay with rice (Oryra sativa), 0%; in assay [12] it was 25%.

Take `CS(=O)(=O)c1ccccc1NC(=O)[C@H]1C(=O)NC[C@@H]1c1ccc(OC(F)F)cc1` [Compound 787]: the pest or weed control at 125 g/ha is 80% in the assay on Kochia (Kochia scoparia) (setting [13]); 20% in assay [1] (setting [14]); 70% in assay [2] (setting [15]); 50% in assay [3] (setting [16]); 70% in [4] (setting [17]); 0% in assay [5] (setting [18]). Moreover, the pest or weed control at 125 g/ha in [6] amounted to 30%; in assay [7], 20%; in assay [8], 60%; in assay [9] it was 20%. In addition, the pest or weed control at 500 g/ha stood at 90% in the assay with Kochia (Kochia scoparia) (Preemergence); 70% in assay [1] (Preemergence); 90% in assay [2] (Preemergence); 80% in assay [3] (Preemergence); 70% in [4] (Preemergence); 0% in [5] (Preemergence). Moreover, the pest or weed control at 250 g/ha turned out to be 0% in assay [10], 50% in assay [11], 0% in the assay with rice (Oryra sativa) and 0% in assay [12].
